# Source: PMC9727182, “Identification of pharmacokinetic markers for safflower injection using a combination of system pharmacology, multicomponent pharmacokinetics, and quantitative proteomics study” (Frontiers in Pharmacology, 2022)
# Assays:
# [1] = Multicomponent pharmacokinetics in rat plasma after i.v. safflower injection (SI); conditions: for concentration at 15 min / AUC(0-inf) / AUC(0-t) / Cmax / MRT inf / MRT last / Vd / clearance / half-life: male, Sprague-Dawley, rat, plasma; for concentration at 15 min: intravenous; for AUC(0-inf) / AUC(0-t) / Cmax / MRT inf / MRT last / Vd / clearance / half-life: iv
# Experimental: The animal experiments were approved by the Animal Care and Use Committee of the College of Animal Science (College of Bee Science), Fujian Agriculture and Forestry University (Approval Number: PZCASFAFU21012). 250 ± 20 g of male Sprague-Dawley (SD) rats were provided by Lab Animal Center in Fujian Medical University (Fuzhou, China).
# Ten rats were divided into three groups (Low dose group, n = 4; medium and high groups, n = 3, respectively). […] For each rat, 2 ml of physiological saline was supplemented after 30 min sampling via intraperitoneal injection. The plasma samples were obtained by centrifugation at 3,000 rpm for 10 min and stored at −20°C until analysis.
# Clear supernatant (5 μl) was injected into HPLC-MS for bioanalysis.
# The sample was separated on a RD-C18 column (4.6 mm × 50 mm, 3.5 μm, Zhongpu Develop, China). The mobile phase incudes water with 0.1% acetic acid (A) and acetonitrile (B). […] The column temperature, flow rate and injection volume were set at 30°C, 0.5 ml/min and 5 μl, respectively.
# Non-compartmental model was used to calculate the PK parameters by DAS 3.0 software (Chinese Pharmacologic Society, Beijing, China). A single-tailed t-test was carried out in the study.
# [2] = system: H9c2 cardiomyocytes injured by H2O2; assay: Protection of cardiomyocytes injured by H2O2 (MTT); format: cell-based
# Experimental: H9c2 cardiomyocytes obtained from Cell Bank of the Chinese Academy of Sciences (Shanghai, China) were cultured in DMEM (high glucose) supplemented with 1% P/S and 15% FBS in 5% CO2 at 37°C. The cells were collected with 0.25% trypsin, followed by re-seeding in 96-well multiplates with a density of 5×10^3 cells per well. The cell experiments were grouped as follows: normal group, model group (H2O2), administration groups and positive control groups (N-Acetyl-L-cysteine, NAC). […] After that, cells were incubated with 0.5 mg/ml of MTT for 4 h under standard condition, followed by addition of 150 µl DMSO into every well. The cell supernatants were finally removed and the optical density (OD) was recorded at 570 nm using a microplate reader (Thermo Fisher Scientific, United States). The protection rate of the compounds on H9c2 cardiomyocytes was calculated as (OD valueadministration group (or NAC group)-OD valuemodel group)/(OD valuenormal group-OD valuemodel group) ×100%.
# [3] = Stability of 6 compounds of SI in rat plasma; conditions: for 10h in auto-sampler vials RE: extracted rat plasma; for 6h at room temperature RE / Freeze-thaw stability (three cycles) RE / Long-term stability (-80℃,15 days) RE: rat plasma
# Excerpt: The LC-MS method was validated by linearity, limits of detection (LOD), limits of quantification (LOQ), precision, accuracy, extraction recovery, matrix effect and stability of the 6 ingredients in rat plasma. Calibration curves were plotted using weighted linear regression of the peak area ratio of analyte to the IS against the corresponding nominal concentration of the analyte. LOD and LOQ were defined as the detectable concentration at which the ratio of signal to noise was more than 3 and 10, respectively. Intra- and inter-day accuracy and precision were assessed by detecting quality control (QC) samples using five replicates of rat samples at three concentration levels on one or three validation days, respectively. Accuracy and precision were expressed by relative error (RE) and relative standard deviation (RSD), respectively. The extraction recovery and matrix effect of the 6 components at above-mentioned three concentration levels were determined. Stability was assessed under the condition of placing un-treated plasma samples at room temperature for 6 h, and extracted plasma samples in auto-sampler for 10 h, as well as placing plasma samples within freeze-thaw three cycles and at −80 °C for 15 days.
# [4] = Stability in diluted SI at room temperature; conditions: analyzed at 0, 2, 4, 8, 12, 24, and 48 h
# [5] = system: H9c2 cardiomyocytes injured by H2O2; assay: TMT quantitative proteomics of H2O2-injured cardiomyocytes; format: cell-based; conditions: 195 μM
# Experimental: The procedures for cell culture, group and administration are similar to those in “2.7. […] Briefly, the difference is that H9c2 cells were seeded and cultured in a culture flask with a bottom area of 25 cm^2 with a density 1×10^5 cells/ml. After treatment, about 3×10^7 cells per group were collected for the next quantitative proteomics investigation, which was done by Jingjie PTM Biolabs (Hangzhou, China). All the procedures for quantitative proteomics can be found in the section of “5. Quantitative proteomics” of the Supplementary Material.
# The quantitative proteomics study was carried out according to our previous report ([Li et al., 2022]). Relative quantitative values of proteins in two samples were compared via t-test. […] The identified difference proteins between groups were subjected further to principal component analysis (PCA). […] The subcellular structure location was analyzed using these proteins as objectives.
molecule,measurement,setting,value
O=c1c(O)c(-c2ccc(O)cc2)oc2cc(O)cc(O)c12 [kaempferol],concentration at 15 min,[1]; 2 ml/kg,< 0.5 ng/mL
"O=C(O)/C=C/c1ccc(O)cc1 [p-CA, p-coumaric acid]",detection in rat plasma,"[1]; 1 h after administration (2 ml/kg of SI), preliminary test",can be detected
same,AUC(0-inf),[1]; 1 ml/kg,67.7 ± 57.2 ng·h/mL
same,AUC(0-t),[1]; 1 ml/kg,62.5 ± 50 ng·h/mL
same,Cmax,[1]; 1 ml/kg,305 ± 147 ng/mL
same,MRT inf,[1]; 1 ml/kg,7.2 ± 4.2 min
same,MRT last,[1]; 1 ml/kg,6 ± 3 min
same,Vd,[1]; 1 ml/kg,0.11 ± 0.03 L/kg
same,clearance,[1]; 1 ml/kg,20.2 mL/min/kg
same,half-life,[1]; 1 ml/kg,4.8 ± 3 min
same,AUC(0-inf),[1]; 2 ml/kg,277 ± 84 ng·h/mL
same,AUC(0-t),[1]; 2 ml/kg,265 ± 89.7 ng·h/mL
same,Cmax,[1]; 2 ml/kg,715 ± 85.8 ng/mL
same,MRT inf,[1]; 2 ml/kg,19.8 ± 0.6 min
same,MRT last,[1]; 2 ml/kg,16.2 ± 1.8 min
same,Vd,[1]; 2 ml/kg,0.13 ± 0.07 L/kg
same,clearance,[1]; 2 ml/kg,6.67 mL/min/kg
same,half-life,[1]; 2 ml/kg,13.2 ± 3.6 min
same,AUC(0-inf),[1]; 4 ml/kg,469 ± 38.1 ng·h/mL
same,AUC(0-t),[1]; 4 ml/kg,433 ± 44.5 ng·h/mL
same,Cmax,[1]; 4 ml/kg,1260 ng/mL
same,MRT inf,[1]; 4 ml/kg,19.2 ± 2.4 min
same,MRT last,[1]; 4 ml/kg,15 ± 2.4 min
same,Vd,[1]; 4 ml/kg,0.14 ± 0.03 L/kg
same,clearance,[1]; 4 ml/kg,7.5 mL/min/kg
same,half-life,[1]; 4 ml/kg,12.6 ± 3 min
same,protection,"[2]; 8.5 μM, preliminary test at maximum detected plasma concentration",absence of protection
same,10h in auto-sampler vials RE,[3]; spiked 150 ng/mL,-6.50%
same,10h in auto-sampler vials RE,[3]; spiked 400 ng/mL,0.06%
same,10h in auto-sampler vials RE,[3]; spiked 10000 ng/mL,-4.10%
same,6h at room temperature RE,[3]; spiked 150 ng/mL,-2.67%
same,Freeze-thaw stability (three cycles) RE,[3]; spiked 150 ng/mL,0.13%
same,"Long-term stability (-80℃,15 days) RE",[3]; spiked 150 ng/mL,-0.13%
same,6h at room temperature RE,[3]; spiked 400 ng/mL,-2.50%
same,Freeze-thaw stability (three cycles) RE,[3]; spiked 400 ng/mL,3.70%
same,"Long-term stability (-80℃,15 days) RE",[3]; spiked 400 ng/mL,1.40%
same,6h at room temperature RE,[3]; spiked 10000 ng/mL,-2.72%
same,Freeze-thaw stability (three cycles) RE,[3]; spiked 10000 ng/mL,-1.55%
same,"Long-term stability (-80℃,15 days) RE",[3]; spiked 10000 ng/mL,6.82%
same,Stability RSD,[4],3.29%
O=c1c(O)c(-c2ccc(O)c(O)c2)oc2cc(O)cc(O)c12 [quercetin],concentration at 15 min,[1]; 2 ml/kg,< 0.5 ng/mL
same,Stability RSD,[4],2.51%
O=C(O)/C=C/c1ccccc1 [trans-cinnamic acid],Stability RSD,[4],1.86%
O=c1ccn([C@@H]2O[C@H](CO)[C@@H](O)[C@H]2O)c(=O)[nH]1 [uridine],concentration at 15 min,[1]; 2 ml/kg,< 0.5 ng/mL
same,Stability RSD,[4],2.81%
hydroxysafflor yellow A [HSYA],cell viability vs. model group,"[2]; 10 μM, pretreated 24 h, 250 μM H2O2 2 h",higher cell viability than the model group
same,anti-H2O2 injury effect (protection rate),"[2]; 1, 5 and 10 μM",concentration-dependent
same,protection rate,"[2]; […] μM, preliminary test at maximum detected plasma concentration",about 26%
same,proteins significantly downregulated vs. M group,"[5]; fold change ≤1/1.5, p <0.05",205 proteins
same,proteins significantly upregulated vs. M group,"[5]; fold change ≥1.5, p <0.05",148 proteins
same,KEGG pathway regulation,[5]; vs. M group,downregulated the ribosome pathway and upregulated the lysosome pathway
same,changed protein expression located at the cytoplasm,[5]; vs. M group,41.64%
same,changed protein expression located at the nucleus,[5]; vs. M group,27.48%
